Assay results from patent US9145351B2, “Azole derivatives, methods for producing the same, intermediate thereof, agro-horticultural agents” (KUREHA CORPORATION, priority 2009, dated 2015).

How the values were obtained:
Format in all cases: cell-based
Sclerotinia sclerotiorum = assay: Plate medium fungicidal assay, Sclerotinia rot S.s (Experimental Example 5); conditions: for inhibition at 5 µg/mL / inhibition at 50 µg/mL: Sclerotinia sclerotiorum, read-out: growth inhibition grade S.s
Procedure: (§1) In this Experimental Example, the fungicidal effects of the inventive compounds on various phytopathogenic fungi for plants and hazardous microorganism for industrial materials were examined by the methods described below. Each inventive compound was dissolved in 2 ml of dimethyl sulfoxide. 0.6 ml of this solution was added to 60 nil of a PDA medium (potato dextrose agar medium) at about 60 degrees C., which was mixed thoroughly in a 100-ml conical flask, and poured into a dish, where it was solidified, thereby obtaining a plate medium containing the inventive compound at 50 mg/L and 5 mg/L. On the other hand, a subject microorganism previously cultured on a plate medium was cut out using a cork borer whose diameter was 4 mm, and inoculated to the test compound-containing plate medium described above. […] The growth degree of the microorganism on the test compound-containing plate medium thus observed was compared with the growth degree of the microorganism in the untreated group, and % mycelial growth inhibition was calculated by the following equation. R=100(dc−dt)/dc wherein R=% mycelial extension inhibition, dc=flora diameter in untreated plate, dt=flora diameter in treated plate. The results obtained as described above were evaluated as one of the 5 grades according to the following criteria. […] Sclerotinia rot (Sclerotinia sclerotiorum) S.s

Botritis cinerea = assay: Plate medium fungicidal assay, gray mold B.c (Experimental Example 5); conditions: for inhibition at 5 µg/mL / inhibition at 50 µg/mL: read-out: growth inhibition grade B.c
Procedure: as §1, with “Gray mold (Botritis cinerea) B.c” for “Sclerotinia rot (Sclerotinia sclerotiorum) S.s”

Giberella fujikuroi = assay: Plate medium fungicidal assay, rice bakanae disease G.f (Experimental Example 5); conditions: for inhibition at 5 µg/mL / inhibition at 50 µg/mL: read-out: growth inhibition grade G.f
Procedure: as §1, with “Rice bakanae disease (Giberella fujikuroi) G.f” for “Sclerotinia rot (Sclerotinia sclerotiorum) S.s”

Fusarium graminearum = assay: microbe, parasite or virus in culture; conditions: for inhibition at 5 µg/mL / inhibition at 50 µg/mL: Fusarium graminearum, read-out: growth inhibition grade F.g
Rhynchosporium secalis = assay: Plate medium fungicidal assay, barley leaf blotch R.sec (Experimental Example 5); conditions: for inhibition at 5 µg/mL / inhibition at 50 µg/mL: Rhynchosporium secalis, read-out: growth inhibition grade R.sec
Procedure: as §1, with “Barley leaf blotch (Rhynchosporium secalis) R.sec” for “Sclerotinia rot (Sclerotinia sclerotiorum) S.s”

[1] = system: Pseudocercoporella herpotrichoides; assay: Plate medium fungicidal assay, wheat eye spot P.h (Experimental Example 5); conditions: for inhibition at 5 µg/mL / inhibition at 50 µg/mL: read-out: growth inhibition grade P.h
Procedure: as §1, with “Wheat eye spot (Pseudocercoporella herpotrichoides) P.h” for “Sclerotinia rot (Sclerotinia sclerotiorum) S.s”

Pyricularia oryzae = assay: microbe, parasite or virus in culture; conditions: for inhibition at 5 µg/mL / inhibition at 50 µg/mL: Pyricularia oryzae, read-out: growth inhibition grade P.o
[2] = plate medium containing compound at 5 mg/L
[3] = plate medium containing compound at 50 mg/L

`CC1(C)CCC(Cc2ccc(Cl)cc2)C1(O)Cn1ncnc1S` (racemic) [compound (2)] was tested, and the “Growth inhibition grade, S.s” value (Sclerotinia sclerotiorum; plate medium, 5 mg/L) was 3 (% Mycelial growth inhibition of less than 60 to 40% or higher), the “Growth inhibition grade, S.s” value (Sclerotinia sclerotiorum; plate medium, 50 mg/L) was 5 (% Mycerial growth inhibition of 80% or higher) and the “Growth inhibition grade, B.c” value (Botritis cinerea; plate medium, 5 mg/L) was 2 (% Mycerial growth inhibition of less than 40 to 20% or higher). The “Growth inhibition grade, B.c” value (Botritis cinerea; plate medium, 50 mg/L) was 5 (% Mycerial growth inhibition of 80% or higher), the “Growth inhibition grade, G.f” value (Giberella fujikuroi; plate medium, 5 mg/L) was 3 (% Mycelial growth inhibition of less than 60 to 40% or higher) and the “Growth inhibition grade, G.f” value (Giberella fujikuroi; plate medium, 50 mg/L) was 4 (% Mycerial growth inhibition of less than 80 to 60% or higher). The “Growth inhibition grade, F.g” value (Fusarium graminearum; plate medium, 5 mg/L) was 3 (% Mycelial growth inhibition of less than 60 to 40% or higher), the “Growth inhibition grade, F.g” value (Fusarium graminearum; plate medium, 50 mg/L) was 5 (% Mycerial growth inhibition of 80% or higher) and the “Growth inhibition grade, R.sec” value (Rhynchosporium secalis; plate medium, 5 mg/L) was 5 (% Mycerial growth inhibition of 80% or higher). For the same compound, the “Growth inhibition grade, R.sec” value (Rhynchosporium secalis; plate medium, 50 mg/L) was 5 (% Mycerial growth inhibition of 80% or higher), the “Growth inhibition grade, P.h” value ([1]; plate medium, 5 mg/L) was 2 (% Mycerial growth inhibition of less than 40 to 20% or higher) and the “Growth inhibition grade, P.h” value ([1]; plate medium, 50 mg/L) was 4 (% Mycerial growth inhibition of less than 80 to 60% or higher). For the same compound, the “Growth inhibition grade, P.o” value (Pyricularia oryzae; plate medium, 5 mg/L) was 4 (% Mycerial growth inhibition of less than 80 to 60% or higher) and the “Growth inhibition grade, P.o” value (Pyricularia oryzae; plate medium, 50 mg/L) was 4 (% Mycerial growth inhibition of less than 80 to 60% or higher).
`C[C@]1(CCl)CC[C@@H](Cc2ccc(Cl)cc2)[C@]1(O)Cn1ccnc1` (racemic) [Compound I-244, (1RS,2SR,5SR)-5-(4-chlorobenzyl)-2-chloromethyl-2-methyl-1-imidazol-1-ylmethylcyclopentanol] was tested, and the inhibition at 5 µg/mL (Sclerotinia sclerotiorum; plate medium, 5 mg/L) was > 80%, the inhibition at 50 µg/mL (Sclerotinia sclerotiorum; plate medium, 50 mg/L) was > 80% and the inhibition at 5 µg/mL (Botritis cinerea; plate medium, 5 mg/L) was 60 to 80%. For the same compound, the inhibition at 50 µg/mL (Botritis cinerea; plate medium, 50 mg/L) was > 80%, the inhibition at 5 µg/mL (Giberella fujikuroi; plate medium, 5 mg/L) was > 80% and the inhibition at 50 µg/mL (Giberella fujikuroi; plate medium, 50 mg/L) was > 80%. The inhibition at 5 µg/mL (Fusarium graminearum) was > 80%, the inhibition at 50 µg/mL (Fusarium graminearum) was > 80% and the inhibition at 5 µg/mL (Rhynchosporium secalis; plate medium, 5 mg/L) was > 80%. For the same compound, the inhibition at 50 µg/mL (Rhynchosporium secalis; plate medium, 50 mg/L) was > 80%, the inhibition at 5 µg/mL ([1]; plate medium, 5 mg/L) was > 80% and the inhibition at 50 µg/mL ([1]; plate medium, 50 mg/L) was > 80%. For the same compound, the inhibition at 5 µg/mL (Pyricularia oryzae) was > 80% and the inhibition at 50 µg/mL (Pyricularia oryzae) was > 80%.
`C[C@]1(CCl)CC[C@@H](Cc2ccccc2F)[C@]1(O)Cn1cncn1` (relative stereo) [Compound I-86] was tested, and the “Growth inhibition grade, S.s” value (Sclerotinia sclerotiorum; [2]) was 5 (% Mycerial growth inhibition of 80% or higher), the “Growth inhibition grade, S.s” value (Sclerotinia sclerotiorum; [3]) was 5 (% Mycerial growth inhibition of 80% or higher) and the “Growth inhibition grade, B.c” value (Botritis cinerea; [2]) was 5 (% Mycerial growth inhibition of 80% or higher). The “Growth inhibition grade, B.c” value (Botritis cinerea; [3]) was 5 (% Mycerial growth inhibition of 80% or higher), the “Growth inhibition grade, G.f” value (Giberella fujikuroi; [2]) was 5 (% Mycerial growth inhibition of 80% or higher) and the “Growth inhibition grade, G.f” value (Giberella fujikuroi; [3]) was 5 (% Mycerial growth inhibition of 80% or higher). The “Growth inhibition grade, F.g” value (Fusarium graminearum; [2]) was 5 (% Mycerial growth inhibition of 80% or higher), the “Growth inhibition grade, F.g” value (Fusarium graminearum; [3]) was 5 (% Mycerial growth inhibition of 80% or higher) and the “Growth inhibition grade, R.sec” value (Rhynchosporium secalis; [2]) was 5 (% Mycerial growth inhibition of 80% or higher). For the same compound, the “Growth inhibition grade, R.sec” value (Rhynchosporium secalis; [3]) was 5 (% Mycerial growth inhibition of 80% or higher), the “Growth inhibition grade, P.h” value [1, 2] was 5 (% Mycerial growth inhibition of 80% or higher) and the “Growth inhibition grade, P.h” value [1, 3] was 5 (% Mycerial growth inhibition of 80% or higher). The “Growth inhibition grade, P.o” value (Pyricularia oryzae; [2]) was 5 (% Mycerial growth inhibition of 80% or higher) and the “Growth inhibition grade, P.o” value (Pyricularia oryzae; [3]) was 5 (% Mycerial growth inhibition of 80% or higher).
`C[C@]1(CBr)CC[C@@H](Cc2ccccc2)[C@]1(O)Cn1cncn1` (racemic) [Compound I-602, (1RS,2SR,5SR)-2-bromomethyl-5-benzyl-2-methyl-1-(1H-1,2,4-triazol-1-ylmethyl)cyclopentanol] was tested, and the inhibition at 5 µg/mL (Sclerotinia sclerotiorum; plate medium, 5 mg/L) was > 80%, the inhibition at 50 µg/mL (Sclerotinia sclerotiorum; plate medium, 50 mg/L) was > 80% and the inhibition at 5 µg/mL (Botritis cinerea; plate medium, 5 mg/L) was 60 to 80%. The inhibition at 50 µg/mL (Botritis cinerea; plate medium, 50 mg/L) was > 80%, the inhibition at 5 µg/mL (Giberella fujikuroi; plate medium, 5 mg/L) was > 80% and the inhibition at 50 µg/mL (Giberella fujikuroi; plate medium, 50 mg/L) was > 80%. For the same compound, the inhibition at 5 µg/mL (Fusarium graminearum) was > 80%, the inhibition at 50 µg/mL (Fusarium graminearum) was > 80% and the inhibition at 5 µg/mL (Rhynchosporium secalis; plate medium, 5 mg/L) was > 80%. The inhibition at 50 µg/mL (Rhynchosporium secalis; plate medium, 50 mg/L) was > 80%, the inhibition at 5 µg/mL ([1]; plate medium, 5 mg/L) was 40 to 60% and the inhibition at 50 µg/mL ([1]; plate medium, 50 mg/L) was > 80%. For the same compound, the inhibition at 5 µg/mL (Pyricularia oryzae) was > 80% and the inhibition at 50 µg/mL (Pyricularia oryzae) was > 80%.
In the case of `C[C@]1(CCl)CC[C@H](Cc2ccc(Cl)cc2)[C@]1(O)Cn1cncn1` (racemic) [Compound I-301, (1RS,2SR,5RS)-5-(4-chlorobenzyl)-2-chloromethyl-2-methyl-1-[1,2,4]triazol-1-ylmethylcyclopentanol], the inhibition at 5 µg/mL (Sclerotinia sclerotiorum; plate medium, 5 mg/L) is reported as > 80%, the inhibition at 50 µg/mL (Sclerotinia sclerotiorum; plate medium, 50 mg/L) is reported as > 80% and the inhibition at 5 µg/mL (Botritis cinerea; plate medium, 5 mg/L) is reported as > 80%. The inhibition at 50 µg/mL (Botritis cinerea; plate medium, 50 mg/L) was > 80%, the inhibition at 5 µg/mL (Giberella fujikuroi; plate medium, 5 mg/L) was > 80% and the inhibition at 50 µg/mL (Giberella fujikuroi; plate medium, 50 mg/L) was > 80%. For the same compound, the inhibition at 5 µg/mL (Fusarium graminearum) was > 80%, the inhibition at 50 µg/mL (Fusarium graminearum) was > 80% and the inhibition at 5 µg/mL (Rhynchosporium secalis; plate medium, 5 mg/L) was > 80%. For the same compound, the inhibition at 50 µg/mL (Rhynchosporium secalis; plate medium, 50 mg/L) was > 80%, the inhibition at 5 µg/mL ([1]; plate medium, 5 mg/L) was > 80% and the inhibition at 50 µg/mL ([1]; plate medium, 50 mg/L) was > 80%. The inhibition at 5 µg/mL (Pyricularia oryzae) was > 80% and the inhibition at 50 µg/mL (Pyricularia oryzae) was > 80%.
